Measurements: US6506772B1, “Substituted [1,2,4]triazolo[1,5a]pyridine derivatives with activity as adenosine receptor ligands” (Hoffmann-La Roche Inc., priority 2000, dated 2003)

Tests used:
HA1 adenosine receptor = target: T1, HA1 adenosine receptor (Homo sapiens, UniProt P30542); experiment: Human adenosine A1 receptor affinity (Ki hA1); assay type: binding
T1 sequence (P30542 1-326): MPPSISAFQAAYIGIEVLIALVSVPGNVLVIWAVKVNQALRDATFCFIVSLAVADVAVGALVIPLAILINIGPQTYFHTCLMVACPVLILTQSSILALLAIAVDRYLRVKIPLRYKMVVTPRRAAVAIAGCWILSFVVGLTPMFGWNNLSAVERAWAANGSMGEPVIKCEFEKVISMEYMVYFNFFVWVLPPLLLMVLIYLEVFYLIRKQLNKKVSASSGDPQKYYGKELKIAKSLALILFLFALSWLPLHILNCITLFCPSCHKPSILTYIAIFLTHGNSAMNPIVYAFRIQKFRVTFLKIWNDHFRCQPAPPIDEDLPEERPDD

[1] = target: T2, human adenosine A2A receptor (Homo sapiens, UniProt P29274); experiment: Human adenosine A2A receptor [3H]-SCH-58261 binding assay; conditions: for selectivity (A1/A2a): ratio KiHA1 divided by KiHA2A; for Ki: recombinant human A2A in CHO cell membranes, [3H]-SCH-58261, Cheng-Prussoff, read-out: Ki hA2A
T2 construct: expressed in transfected cells; host or cells: CHO cells, Semliki Forest virus expression system; membrane preparation
T2 sequence (P29274 whole entry): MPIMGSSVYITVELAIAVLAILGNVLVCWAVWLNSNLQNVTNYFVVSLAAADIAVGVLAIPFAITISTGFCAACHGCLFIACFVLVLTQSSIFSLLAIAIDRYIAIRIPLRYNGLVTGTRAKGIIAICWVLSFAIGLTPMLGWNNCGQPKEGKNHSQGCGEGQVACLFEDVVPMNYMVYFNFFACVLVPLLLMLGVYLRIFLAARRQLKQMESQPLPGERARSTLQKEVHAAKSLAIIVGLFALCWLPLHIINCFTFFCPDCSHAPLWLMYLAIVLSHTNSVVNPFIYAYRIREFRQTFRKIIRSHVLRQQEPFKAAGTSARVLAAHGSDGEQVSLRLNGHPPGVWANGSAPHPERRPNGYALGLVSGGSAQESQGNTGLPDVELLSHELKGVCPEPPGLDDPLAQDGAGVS

SMILES	Ki (HA1 adenosine receptor)	selectivity (A1/A2a) [1]	Ki [1]
CC(C)CN(CC(C)C)C(=O)c1cc(N)n2nc(-c3nccs3)nc2c1 [Example 405, 5-Amino-2-thiazol-2-yl-[1,2,4]triazolo[1,5-a]pyridine-7-carboxylic acid diisobutylamide]	1000 nM	23.2	43.3 nM
CCN(C)C(=O)c1cc(N)n2nc(-c3ccccn3)nc2c1 [Example 406, 5-Amino-2-pyridin-2-yl-[1,2,4]triazolo[1,5-a]pyridine-7-carboxylic acid ethyl-methyl-amide]	3930 nM	26.8	147 nM
C#CCN(C)C(=O)c1cc(N)n2nc(-c3ccccn3)nc2c1 [Example 407, 5-Amino-2-pyridin-2-yl-[1,2,4]triazolo[1,5-a]pyridine-7-carboxylic acid methyl-prop-2-ynyl-amide]	1830 nM	26.5	69.1 nM
Nc1cc(C(=O)N2CC=CC2)cc2nc(-c3ccccn3)nn12 [Example 408, (5-Amino-2-pyridin-2-yl-[1,2,4]triazolo[1,5-a]pyridin-7-yl)-(2,5-dihydro-pyrrol-1-yl)-methanone]	1370 nM	14.9	91.8 nM
C=CCN(C)C(=O)c1cc(N)n2nc(-c3ccccn3)nc2c1 [Example 409, 5-Amino-2-pyridin-2-yl-[1,2,4]triazolo[1,5-a]pyridine-7-carboxylic acid allyl-methyl-amide]	1650 nM	16.5	99.8 nM
CC(C)N(C)C(=O)c1cc(N)n2nc(-c3ccccn3)nc2c1 [Example 411, 5-Amino-2-pyridin-2-yl-[1,2,4]triazolo[1,5-a]pyridine-7-carboxylic acid isopropyl-methyl-amide]	1410 nM	22.6	62.3 nM
CCCN(C)C(=O)c1cc(N)n2nc(-c3ccccn3)nc2c1 [Example 412, 5-Amino-2-pyridin-2-yl-[1,2,4]triazolo[1,5-a]pyridine-7-carboxylic acid methyl-propyl-amide]	3020 nM	25.4	119 nM
CC1CCCN1C(=O)c1cc(N)n2nc(-c3ccccn3)nc2c1 (stereo not drawn) [Example 413, (5-Amino-2-pyridin-2-yl-[1,2,4]triazolo[1,5-a]pyridin-7-yl)-(2-methyl-pyrrolidin-1-yl)-methanone]	1430 nM	37.8	37.8 nM
CCN(C(=O)c1cc(N)n2nc(-c3ccccn3)nc2c1)C(C)C [Example 414, 5-Amino-2-pyridin-2-yl-[1,2,4]triazolo[1,5-a]pyridine-7-carboxylic acid ethyl-isopropyl-amide]	885 nM	15.8	56 nM
CC1C=CC(C)N1C(=O)c1cc(N)n2nc(-c3ccccn3)nc2c1 (stereo not drawn) [Example 415, (5-Amino-2-pyridin-2-yl-[1,2,4]triazolo[1,5-a]pyridin-7-yl)-(2,5-dimethyl-2,5-dihydro-pyrrol-1-yl)-methanone]	274 nM	3.6	75.4 nM
C=CCN(CC=C)C(=O)c1cc(N)n2nc(-c3ccccn3)nc2c1 [Example 416, 5-Amino-2-pyridin-2-yl-[1,2,4]triazolo[1,5-a]pyridine-7-carboxylic acid diallylamide]	835 nM	17.4	48.1 nM
Nc1cc(C(=O)N2CCCCCC2)cc2nc(-c3ccccn3)nn12 [Example 417, (5-Amino-2-pyridin-2-yl-[1,2,4]triazolo[1,5-a]pyridin-7-yl)-azepan-1-yl-methanone]	532 nM	31.5	16.9 nM
CC1CCCCN1C(=O)c1cc(N)n2nc(-c3ccccn3)nc2c1 (stereo not drawn) [Example 418, (5-amino-2-pyridin-2-yl-[1,2,4]triazolo[1,5-a]pyridin-7-yl)-(2-methyl-piperidin-1-yl)-methanone]	1020 nM	24.2	42.4 nM
CC1CCCN(C(=O)c2cc(N)n3nc(-c4ccccn4)nc3c2)C1 (stereo not drawn) [Example 419, (5-Amino-2-pyridin-2-yl-[1,2,4]triazolo[1,5-a]pyridin-7-yl)-(3-methyl-piperidin-1-yl)-methanone]	1600 nM	35.5	44.9 nM
CCCN(CCC)C(=O)c1cc(N)n2nc(-c3ccccn3)nc2c1 [Example 420, 5-Amino-2-pyridin-2-yl-[1,2,4]triazolo[1,5-a]pyridine-7-carboxylic acid dipropylamide]	1810 nM	17.5	103 nM
CCCCN(CC)C(=O)c1cc(N)n2nc(-c3ccccn3)nc2c1 [Example 421, 5-Amino-2-pyridin-2-yl-[1,2,4]triazolo[1,5-a]pyridine-7-carboxylic acid butyl-ethyl-amide]	1360 nM	15.9	85.7 nM
Nc1cc(C(=O)N2CCCCCCC2)cc2nc(-c3ccccn3)nn12 [Example 422, (5-Amino-2-pyridin-2-yl-[1,2,4]triazolo[1,5-a]pyridin-7-yl)-azocan-1-yl-methanone]	372 nM	21.4	17.4 nM
CC1CC(C)CN(C(=O)c2cc(N)n3nc(-c4ccccn4)nc3c2)C1 (stereo not drawn) [Example 423, (5-Amino-2-pyridin-2-yl-[1,2,4]triazolo[1,5-a]pyridin-7-yl)-(3,5-dimethyl-piperidin-1-yl)-methanone]	832 nM	24.6	33.8 nM
CCCN(CC1CC1)C(=O)c1cc(N)n2nc(-c3ccccn3)nc2c1 [Example 424, 5-Amino-2-pyridin-2-yl-[1,2,4]triazolo[1,5-a]pyridine-7-carboxylic acid cyclopropylmethyl-propyl-amide]	878 nM	17.7	49.6 nM
COC[C@H]1CCCN1C(=O)c1cc(N)n2nc(-c3ccccn3)nc2c1 [Example 425, (5-Amino-2-pyridin-2-yl-[1,2,4]triazolo[1,5-a]pyridin-7-yl)-(R-2-methoxymethyl-pyrrolidin-1-yl)-methanone]	1290 nM	31.7	40.8 nM
COC[C@@H]1CCCN1C(=O)c1cc(N)n2nc(-c3ccccn3)nc2c1 [Example 426, (5-Amino-2-pyridin-2-yl-[1,2,4]triazolo[1,5-a]pyridin-7-yl)-(S-2-methoxymethyl-pyrrolidin-1-yl)-methanone]	2050 nM	17.2	119 nM
CCCCN(CCC)C(=O)c1cc(N)n2nc(-c3ccccn3)nc2c1 [Example 427, 5-Amino-2-pyridin-2-yl-[1,2,4]triazolo[1,5-a]pyridine-7-carboxylic acid butyl-propyl-amide]	1190 nM	11.7	102 nM
C=CCN(C(=O)c1cc(N)n2nc(-c3ccccn3)nc2c1)C1CCCC1 [Example 429, 5-Amino-2-pyridin-2-yl-[1,2,4]triazolo[1,5-a]pyridine-7-carboxylic acid allyl-cyclopentyl-amide]	474 nM	15.3	31 nM
CCC1CCC(C)N(C(=O)c2cc(N)n3nc(-c4ccccn4)nc3c2)C1 (stereo not drawn) [Example 430, (5-Amino-2-pyridin-2-yl-[1,2,4]triazolo[1,5-a]pyridin-7-yl)-(5-ethyl-2-methyl-piperidin-1-yl)-methanone]	689 nM	10.8	63.6 nM
CCN(Cc1ccncc1)C(=O)c1cc(N)n2nc(-c3ccccn3)nc2c1 [Example 431, 5-Amino-2-pyridin-2-yl-[1,2,4]triazolo[1,5-a]pyridine-7-carboxylic acid ethyl-pyridin-4-ylmethyl-amide]	1030 nM	31.2	33.1 nM
CN(C)C(=O)C1CCCN1C(=O)c1cc(N)n2nc(-c3ccccn3)nc2c1 (stereo not drawn) [Example 432, 1-(5-Amino-2-pyridin-2-yl-[1,2,4]triazolo[1,5-a]pyridine-7-carbonyl)-pyrrolidine-2-carboxylic acid dimethyl amide]	2400 nM	27.2	88 nM
CC(C)N(Cc1ccccc1)C(=O)c1cc(N)n2nc(-c3ccccn3)nc2c1 [Example 433, 5-Amino-2-pyridin-2-yl-[1,2,4]triazolo[1,5-a]pyridine-7-carboxylic acid benzyl-isopropyl-amide]	185 nM	11.8	15.6 nM
Nc1cc(C(=O)N(Cc2ccccc2)Cc2ccccc2)cc2nc(-c3ccccn3)nn12 [Example 435, 5-Amino-2-pyridin-2-yl-[1,2,4]triazolo[1,5-a]pyridine-7-carboxylic acid dibenzylamide]	121 nM	19	6.4 nM
CCN(CCOC)C(=O)c1cc(N)n2nc(-c3nccs3)nc2c1 [Example 498, 5-Amino-2-thiazol-2-yl-[1,2,4]triazolo[1,5-a]pyridine-7-carboxylic acid ethyl-(2-methoxy-ethyl)-amide]	3990 nM	21	190 nM
